Several values for one entry are separate records, joined by “and”; a condition that tells them apart may be missing. Identical values can stand only once.
Assay: xn = mol fraction of the nth substance listed
Conditions: 101 kPa, Liquid, Vibrating tube method

C1CCCNCC1 [azacycloheptane] + O
mass density
Conditions | 283.15 K | 288.15 K | 293.15 K | 298.15 K | 303.15 K | 308.15 K | 313.15 K
x2 = 0.0199 | 891.47 kg/m3 | 887.05 kg/m3 | 882.62 kg/m3 | 878.18 kg/m3 | 873.74 kg/m3 | 869.29 kg/m3 | 864.83 kg/m3
x2 = 0.0395 | 892.56 kg/m3 | 888.13 kg/m3 | 883.7 kg/m3 | 879.25 kg/m3 | 874.8 kg/m3 | 870.34 kg/m3 | 865.87 kg/m3
x2 = 0.0821 | 895.27 kg/m3 | 890.84 kg/m3 | 886.39 kg/m3 | 881.94 kg/m3 | 877.47 kg/m3 | 872.99 kg/m3 | 868.49 kg/m3
x2 = 0.1198 | 897.59 kg/m3 | 893.16 kg/m3 | 888.7 kg/m3 | 884.23 kg/m3 | 879.75 kg/m3 | 875.26 kg/m3 | 870.75 kg/m3
x2 = 0.1594 | 900.05 kg/m3 | 895.61 kg/m3 | 891.15 kg/m3 | 886.67 kg/m3 | 882.19 kg/m3 | 877.68 kg/m3 | 873.16 kg/m3
x2 = 0.1994 | 902.85 kg/m3 | 898.4 kg/m3 | 893.94 kg/m3 | 889.46 kg/m3 | 884.96 kg/m3 | 880.45 kg/m3 | 875.92 kg/m3
x2 = 0.2498 | 906.32 kg/m3 | 901.88 kg/m3 | 897.41 kg/m3 | 892.92 kg/m3 | 888.42 kg/m3 | 883.9 kg/m3 | 879.35 kg/m3
x2 = 0.3 | 909.81 kg/m3 | 905.38 kg/m3 | 900.91 kg/m3 | 896.42 kg/m3 | 891.91 kg/m3 | 887.38 kg/m3 | –
x2 = 0.3499 | 913.73 kg/m3 | 909.3 kg/m3 | 904.84 kg/m3 | 900.36 kg/m3 | 895.85 kg/m3 | 891.32 kg/m3 | –
x2 = 0.4 | 917.67 kg/m3 | 913.25 kg/m3 | 908.79 kg/m3 | 904.32 kg/m3 | 899.81 kg/m3 | 895.28 kg/m3 | –
x2 = 0.4529 | 922.26 kg/m3 | 917.86 kg/m3 | 913.42 kg/m3 | 908.96 kg/m3 | 904.46 kg/m3 | 899.94 kg/m3 | –
x2 = 0.5008 | 926.61 kg/m3 | 922.24 kg/m3 | 917.83 kg/m3 | 913.38 kg/m3 | 908.91 kg/m3 | 904.4 kg/m3 | –
x2 = 0.5041 | 926.61 kg/m3 | 922.23 kg/m3 | 917.82 kg/m3 | 913.38 kg/m3 | 908.91 kg/m3 | 904.4 kg/m3 | –
x2 = 0.5508 | 931.05 kg/m3 | 926.72 kg/m3 | 922.34 kg/m3 | 917.93 kg/m3 | 913.48 kg/m3 | 909 kg/m3 | –
x2 = 0.5992 | 935.7 kg/m3 | 931.42 kg/m3 | 927.09 kg/m3 | 922.72 kg/m3 | 918.31 kg/m3 | 913.86 kg/m3 | –
x2 = 0.65 | 941.01 kg/m3 | 936.79 kg/m3 | 932.53 kg/m3 | 928.22 kg/m3 | 923.88 kg/m3 | 919.49 kg/m3 | –
x2 = 0.699 | 946.42 kg/m3 | 942.29 kg/m3 | 938.12 kg/m3 | 933.9 kg/m3 | 929.63 kg/m3 | 925.32 kg/m3 | –
x2 = 0.7496 | 952.51 kg/m3 | 948.5 kg/m3 | 944.46 kg/m3 | 940.36 kg/m3 | 936.22 kg/m3 | 932.02 kg/m3 | –
x2 = 0.7994 | 959.33 kg/m3 | 955.51 kg/m3 | 951.64 kg/m3 | 947.71 kg/m3 | 943.73 kg/m3 | 939.69 kg/m3 | –
x2 = 0.8398 | 965.5 kg/m3 | 961.88 kg/m3 | 958.2 kg/m3 | 954.47 kg/m3 | 950.68 kg/m3 | 946.83 kg/m3 | –
x2 = 0.8799 | 972.62 kg/m3 | 969.3 kg/m3 | 965.9 kg/m3 | 962.45 kg/m3 | 958.91 kg/m3 | 955.31 kg/m3 | –
x2 = 0.92 | 981.18 kg/m3 | 978.28 kg/m3 | 975.3 kg/m3 | 972.24 kg/m3 | 969.1 kg/m3 | 965.86 kg/m3 | –
x2 = 0.9597 | – | – | – | 984.66 kg/m3 and 984.68 kg/m3 | – | – | –
x2 = 0.9599 | 991.53 kg/m3 | 989.32 kg/m3 | 986.99 kg/m3 | 984.54 kg/m3 | 981.98 kg/m3 | 979.29 kg/m3 | –
x2 = 0.96 | 991.6 kg/m3 | 989.39 kg/m3 | 987.06 kg/m3 | 984.61 kg/m3 | 982.04 kg/m3 | 979.35 kg/m3 | –
x2 = 0.9699 | 994.44 kg/m3 | 992.49 kg/m3 | 990.4 kg/m3 | 988.16 kg/m3 | 985.8 kg/m3 | 983.3 kg/m3 | –
x2 = 0.9798 | – | – | – | 991.9 kg/m3 | – | – | –
x2 = 0.98 | 997.1 kg/m3 | 995.56 kg/m3 | 993.8 kg/m3 | 991.86 kg/m3 | 989.75 kg/m3 | 987.48 kg/m3 | –
x2 = 0.9851 | – | – | – | 993.77 kg/m3 | – | – | –
x2 = 0.9882 | – | – | – | 994.59 kg/m3 | – | – | –
x2 = 0.9899 | – | – | – | 994.98 kg/m3 | – | – | –
x2 = 0.9921 | – | – | – | 995.43 kg/m3 | – | – | –
x2 = 0.994 | – | – | – | 995.81 kg/m3 | – | – | –
